This passage reports IC50 results from article doi:10.1101/2023.04.05.535794v1 (biorxiv, 2023).

What all share (test): fluorogenic peptide-amc hydrolysis, dose-response over […] h
Type in all cases: biochemical

The target of assay [1] is T1, Tv20S β5 (T. vaginalis 20S proteasome, β5 site) (Trichomonas vaginalis, UniProt A2DD57).
T1 sequence (A2DD57 54-256): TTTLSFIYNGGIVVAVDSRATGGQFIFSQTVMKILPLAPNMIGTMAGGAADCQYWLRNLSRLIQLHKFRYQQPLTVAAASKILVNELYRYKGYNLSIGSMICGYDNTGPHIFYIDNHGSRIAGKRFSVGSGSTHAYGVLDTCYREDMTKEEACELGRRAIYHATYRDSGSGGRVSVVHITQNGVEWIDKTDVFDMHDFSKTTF

In assay [2] the target is T2, Tv20S β2 (T. vaginalis 20S proteasome, β2 site) (Trichomonas vaginalis, UniProt A2F2T6).
T2 sequence (A2F2T6 32-275): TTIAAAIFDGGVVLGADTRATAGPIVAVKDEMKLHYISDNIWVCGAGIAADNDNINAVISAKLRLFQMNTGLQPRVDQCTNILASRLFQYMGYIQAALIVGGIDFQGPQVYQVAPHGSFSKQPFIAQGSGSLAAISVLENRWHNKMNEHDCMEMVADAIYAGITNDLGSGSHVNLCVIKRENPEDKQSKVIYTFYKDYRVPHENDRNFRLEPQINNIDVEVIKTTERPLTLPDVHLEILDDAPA

Assay [3] addresses T3, Tv20S β1 (T. vaginalis 20S proteasome, β1 site) (Trichomonas vaginalis, UniProt A2E7Z2).
T3 sequence (A2E7Z2 13-216): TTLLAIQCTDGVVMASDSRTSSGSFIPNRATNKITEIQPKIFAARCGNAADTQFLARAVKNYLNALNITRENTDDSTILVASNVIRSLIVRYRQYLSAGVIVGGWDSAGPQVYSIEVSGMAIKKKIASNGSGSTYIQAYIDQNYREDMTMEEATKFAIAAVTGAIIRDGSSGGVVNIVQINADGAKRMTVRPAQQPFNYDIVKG

The structures appear in SMILES notation.

As for `CC(C)C[C@H](NC(=O)[C@H](CCc1ccccc1)NC(=O)CN1CCOCC1)C(=O)N[C@@H](Cc1ccccc1)C(=O)N[C@@H](CC(C)C)C(=O)[C@@]1(C)CO1` [carfilzomib], the IC50 in assay [1] was 78.4 ± 17.3 nM; in assay [2], 372 ± 92.1 nM.
Turning to `CC(C)C[C@H](NC(=O)CNC(=O)c1cc(Cl)ccc1Cl)B(O)O` [ixazomib], the IC50 in assay [3] was 270 ± 97.1 nM; in assay [1], 34.1 ± 5.4 nM.
